Measurements reported in patent US11339124B2, “3-(benzylamino)-4-(cyclohexylamino)-n-(2-(piperazin-1-yl)ethyl)benzenesulfonamide derivatives and related ferrostatin-1 analogues as cell death inhibitors for treating e.g. stroke” (VIB VZW, priority 2018, dated 2022).
“Also recorded” adds a separate entry of the source.

Experiments:
[1] = tested on: acute iron poisoning induced organ damage; assay: Acute iron poisoning (FeSO4) induced organ damage, plasma LDH and creatine kinase; type: in vivo; settings: for Protection against organ damage: plasma lactate dehydrogenase (LDH) and creatine kinase levels, prophylactic setting: ~10 mg/kg iv 15 min before FeSO4 300 mg/kg ip, plasma 2 h after challenge (FIG. 5A); for Protection against organ damage: plasma lactate dehydrogenase (LDH) and creatine kinase levels, therapeutic setting: ~10 mg/kg iv 30 min after FeSO4 300 mg/kg ip, plasma 8 h after challenge (FIG. 5B)
Method: Equimolar amounts of ferroptosis inhibitors (˜10 mg/kg) were injected iv 15 min before ip injection of FeSO4 (300 mg/kg). Plasma was collected 2 h after FeSO4-challenge and analyzed for the presence of lactate dehydrogenase (LDH) and creatine kinase. Fer-1 is ferrostatin, 3234 is compound 37,3206 is compound 38 and 3203 is compound 39 (see Table 1 for numbering and structure). […] Equimolar amounts of ferroptosis inhibitors (˜10 mg/kg) were injected iv 30 min after ip injection of FeSO4 (300 mg/kg). Plasma was collected 8 h after FeSO4-challenge and analyzed for the presence of lactate dehydrogenase (LDH) and creatine kinase.
We identified acute iron poisoning as a novel experimental model for in rhabdomyolysis-induced kidney failure.

[2] = Microsomal (metabolic) stability, rat liver microsomes; settings: for CLint scaled at 10 µM / half-life at 10 µM: rat
Text: (§1) By using the measured microsomal in vitro t1/2, a calculated value for the intrinsic clearance Clint can be determined. This value states the measure in which a drug that is not bound to plasma proteins is irreversibly removed from the body by the liver. This value is expressed in mL/min/kg which can be interpreted as the volume of blood in mL that is cleared of a drug per minute per kilogram of body weight. The CLint is less sensitive to used variables in ADME assays since the amount of microsomal protein and the volume of the incubation are all taken into account. (Sohlenius-Sternbeck et al., Xenobiotica, 2012, 42, 841-853)
(§2) Liver microsomes (20 mg protein/ml), NADPH regenerating system solutions A & B and 5 mM stock compound solution (100% DMSO) are prepared. The reaction mixture finally contains 713 μL purified water, 200 μL 0.5 M potassium phosphate pH 7.4, 50 μL NADPH regenerating system solution A (BD Biosciences Cat. No. 451220), 10 μL NADPH regenerating system solution B (BD Biosciences Cat. No. 451200) and 2 μL of the compound stock solution (10 μM final concentration). The reaction mixture is warmed to 37° C. for 5 minutes in a water bath and the reaction is initiated by addition of 25 μL of liver microsomes (0.5 mg protein/ml final concentration). At different time points (0 min-15 min-30 min-60 min-120 min-240 min-360 min-24 h), 20 μL is withdrawn and 80 μL cold acetonitrile is added on ice for 10 minutes. Then the mixtures are centrifuged at 13 000 rpm for 5 min at 4° C. The supernatant is further diluted in 90% water/MeCN (1/25) to fall within the range of the LC/MS/MS analysis. At each time point, the compound is analysed using LC/MS/MS with the same UPLC system as described above. A standard curve of six points was made to fit the measured concentrations. Verapamil was used as a positive control.
(§3) All obtained readouts were processed using Microsoft Excel. In order to determine the microsomal half-life t1/2 of the compounds, the rate constant k was determined by plotting the exponential decay graphs using GraFit. Microsomal t1/2 was determined using the following formula: […]

[3] = Microsomal (metabolic) stability, human liver microsomes; settings: for Microsomal stability (t1/2), Human / half-life at 10 µM: human liver microsomes, 0.5 mg protein/ml, 10 μM compound, 37° C.; for Microsomal stability (t1/2), Human: Hydrochloride; for CLint scaled at 10 µM / half-life at 10 µM: human, liver microsomes; for CLint scaled at 10 µM: pH 7.4; for half-life at 10 µM: pH 7.4, Microsomal stability (t1/2)
Text: as §1, §2, §3

[4] = Kinetic solubility (turbidimetric method); type: physicochemical; settings: 10 mM PBS pH 7.4, 2% DMSO, test range 3.125-200 μM, 2 h at 37° C.
Method: A turbidimetric method was used. First a series of DMSO compound stock solutions was prepared ([…]). An aliquot of 4 μL stock solution was added to 196 μL PBS buffer (pH 7.4). A series of concentrations were prepared (3.13-200 μM), including a blank on a microtiter plate. (2% DMSO-D6) The microtiter plate was shaken for 10 seconds and incubated for 2 hours at 37° C. When there was no turbidity measured at a given concentration the sample was assumed to be dissolved.

[5] = tested on: experimental autoimmune encephalomyelitis model; assay: Experimental autoimmune encephalomyelitis (EAE) model, therapeutic intervention; type: in vivo; settings: C57BL/6N male mice, daily ip from clinical score 2, scale 0 to 6 (FIG. 6); Hydrochloride
Method: 9-10-week-old C57BL/6N male mice were immunized subcutaneously with an emulsion of (MOG) 35-55 peptide (10 mg/kg) and CFA supplemented with Mycobacterium tuberculosis H37RA (50 mg/kg). The mice received an intraperitoneal injection of pertussis toxin (5 ug/kg) at the time of immunization and 48 h later. In a therapeutic procedure, mice that reached the clinical sore of 2 were injected intraperitoneally every day with equimolar amounts of Fer-1, compound 39, Liproxtatin-1 or vehicle (˜1-mg/kg) and were scored daily. Clinical signs of disease were scored on a scale of 0 to 6, as follows: 0, normal; 1, weakness of tail; 2, complete loss of tail tonicity; 3, partial hind limb paralysis; 4, complete hind limb paralysis; 5, forelimb paralysis or moribund; and 6, death (McGuire C et al (2013) J. Immunol. 190(6): 2896).
Experimental autoimmune encephalomyelitis (EAE) is an experimental mouse for multiple sclerosis.

[6] = In vivo pharmacokinetics, single iv administration to male Wistar rats (blood concentration); parameters: species or system rat; settings: 5 mg/kg iv
Method: In order to estimate how these in vitro ADME parameters correlate to an in vivo setting, compound 39 was selected for a single intravenous (iv) administration to three male Wistar rats at a dose of 5 mg/kg. Blood samples were obtained at various time points. (0.083, 0.25, 0.5, 1, 2, 4, and 24 h) The concentration of 39 was determined using UPLC analysis coupled with tandem quadrupole mass spectrometry. […] Only in 1 sample a concentration of […] was determined 5 minutes after dosing.
Male Wistar rats (BW˜250 g; Janvier France) were housed individually and randomly allocated to groups of 3 animals each based on body weight. The animals were fasted overnight until 4 hours after dosing. Drinking water remained available ad libitum.
The test compound were kept at 4° C. until formulation. The compound was formulated in PEG200 at 10 mg/ml. The test formulation was prepared by LMPH and stored at room temperature.
Blood was collected from sublingual vein using capillary tubes under isoflurane anaesthesia. The blood was dropped (15 μL) on Whatman® FTA® DMPK B cards, dried at room temperature for at least 2 hours and further processed for analysis. A 6 mm disk was punched from the blood spot center, extracted in 75:25 ACN:H2O containing tolbutamide as internal standard (IS). […] The optimal DBS protocol (FTA DMPK-A or B card, extraction solvent) was determined in a preliminary experiment.

[7] = liver microsomes, pH 7.4, Microsomal stability (t1/2), rat liver microsomes, 0.5 mg protein/ml, 10 μM compound, 37° C.

Row | Structure (SMILES) | Protection against organ damage: plasma lactate dehydrogenase (LDH) and creatine kinase levels, prophylactic setting [1] | Protection against organ damage: plasma lactate dehydrogenase (LDH) and creatine kinase levels, therapeutic setting [1] | Microsomal stability (t1/2), Rat ([2]; rat liver microsomes, 0.5 mg protein/ml, 10 μM compound, 37° C., Hydrochloride) [h] | CLint scaled at 10 µM ([2]; liver microsomes, pH 7.4) [mL/min/kg] | half-life at 10 µM [2, 7] [min] | Microsomal stability (t1/2), Human [3] [h] | CLint scaled at 10 µM [3] [mL/min/kg] | half-life at 10 µM [3] [min] | Solubility (kinetic) [4] [µM] | Clinical disease scores during EAE pathology [5] | Plasma concentration (below detection limit in nearly all samples) ([6]; 0.083-24 h) [ng/mL] | Plasma concentration in 1 sample ([6]; 5 minutes after dosing) [ng/mL] | half-life at 10 µM ([2]; microsomes, pH 7.4) [min]
1 | Cl.O=S(=O)(NCCN1CCNCC1)c1ccc(NC2CCCCC2)c(NCc2ccccc2)c1 [Compound 39, 3-(benzylamino)-4-(cyclohexylamino)-N-(2-(piperazin-1-yl)ethyl)benzenesulfonamide Hydrochloride] | more effective | more effective | 16.48 ± 4.66 | 3.4 ± 1 | 990 | 20.53 ± 5.49 | 1.1 ± 0.3 | 1230 | >200 | ameliorates clinical signs; also recorded: improved the clinical disease scores | < 53.1 | 19.6 | 
2 | Cl.NCCNS(=O)(=O)c1ccc(NC2CCCCC2)c(NCc2ccccc2)c1 [Compound 38, N-(2-aminoethyl)-3-(benzylamino)-4-(cyclohexylamino)benzenesulfonamide Hydrochloride] | more effective | more effective |  | 27.4 ± 2.7 |  | 17.71 ± 2.04 | 1.3 ± 0.1 | 1060 | >200 |  |  |  | 123
3 | CNCCNS(=O)(=O)c1ccc(NC2CCCCC2)c(NCc2ccccc2)c1.Cl [Compound 37, 3-(benzylamino)-4-(cyclohexylamino)-N-(2-(methylamino)ethyl)benzenesulfonamide Hydrochloride] | more effective | more effective |  | 161 ± 4.6 | 21 ± 0.6 |  | 1.7 ± 0.5 | 793 ± 246 | >200 |  |  |  | 
